# Experimental data published in patent US20250288584A1, “COMBINATIONS COMPRISING POSITIVE ALLOSTERIC MODULATORS OR ORTHOSTERIC AGONISTS OF METABOTROPIC GLUTAMATERGIC RECEPTOR SUBTYPE 2 AND THEIR USE” (JANSSEN PHARMACEUTICA NV, priority 2014, published 2025).
# Several values for one entry are separate records, joined by “and”; a condition that tells them apart may be missing. Equal entries are not always repeated. Entries after “also recorded” stand apart in the source; their conditions may differ.
# Experiments:
# Format in all cases: in vivo, mice
# [1] = test system: 6 Hz (32 mA) psychomotor seizures; test: 6 Hz psychomotor seizure test, 32 mA (incl. TPE determination)
# Method: Test compounds were administered using an optimal fluid volume to body fluid ratio. Test compounds were administered to mice in a volume of 0.01 mL/g of body weight (White H. S., et al., General Principles: Experimental selection, quantification, and evaluation of antiepileptic drugs, in Antiepileptic Drugs, Fourth Edition, […], and B. S. Meldrum, Editors. 1995, Raven Press, Ltd.: New York, pp. 99-110). For subcutaneous (s.c.) administration, the test compounds were administered into a loose fold of skin along the back of the animal except compound 6-b, which was administered orally (p.o). […] The animals were maintained on an adequate diet (Prolab RMH 3000) and allowed free access to food and water, except during the short time they were removed from their cage for testing. Animals newly received in the laboratory were allowed sufficient time to correct for possible food and water restriction incurred during transit before being employed in testing. All mice were housed in plastic cages in specially constructed rooms with controlled humidity, exchange of air and controlled lighting (12 hours on-12 hours off). The animals were housed, fed, and handled in a manner consistent with the recommendations in the National Council Publication, “Guide for the Care and Use of Laboratory Animals”. In the determination of an ED50 or TD50 for each test compound, the first dose administered is usually the same dose as that used in a successful TPE determination. […] Third and fourth doses were selected to produce an evenly spaced dose response line. […] TPE was determined using the 6 Hz (32 mA) assay. […] The 6 Hz seizure test is used as a model of pharmacoresistant limbic seizures. […] Focal seizures were induced in mice via corneal stimulation (6 Hz, 0.2 msec rectangular pulse, 3 sec duration; Barton et al. 2001). Mice were tested at either 32 mA or 44 mA. […] The seizures that arise from corneal stimulation in this assay are characterized by a minimal clonic phase followed by stereotyped automatistic behaviors including stun, forelimb clonus, twitching of the vibrissae, and Straub-tail. Animals not displaying these behaviors were considered protected.
# [2] = test system: 6 Hz (44 mA) psychomotor seizures; test: 6 Hz psychomotor seizure test, 44 mA (alone, combination with LEV, isobolographic study)
# Method: Test compounds were administered using an optimal fluid volume to body fluid ratio. Test compounds were administered to mice in a volume of 0.01 mL/g of body weight (White H. S., et al., General Principles: Experimental selection, quantification, and evaluation of antiepileptic drugs, in Antiepileptic Drugs, Fourth Edition, […], and B. S. Meldrum, Editors. 1995, Raven Press, Ltd.: New York, pp. 99-110). For subcutaneous (s.c.) administration, the test compounds were administered into a loose fold of skin along the back of the animal except compound 6-b, which was administered orally (p.o). […] The animals were maintained on an adequate diet (Prolab RMH 3000) and allowed free access to food and water, except during the short time they were removed from their cage for testing. Animals newly received in the laboratory were allowed sufficient time to correct for possible food and water restriction incurred during transit before being employed in testing. All mice were housed in plastic cages in specially constructed rooms with controlled humidity, exchange of air and controlled lighting (12 hours on-12 hours off). The animals were housed, fed, and handled in a manner consistent with the recommendations in the National Council Publication, “Guide for the Care and Use of Laboratory Animals”. In the determination of an ED50 or TD50 for each test compound, the first dose administered is usually the same dose as that used in a successful TPE determination. […] Third and fourth doses were selected to produce an evenly spaced dose response line. […] The 6 Hz seizure test is used as a model of pharmacoresistant limbic seizures. […] Focal seizures were induced in mice via corneal stimulation (6 Hz, 0.2 msec rectangular pulse, 3 sec duration; Barton et al. 2001). Mice were tested at either 32 mA or 44 mA. […] The seizures that arise from corneal stimulation in this assay are characterized by a minimal clonic phase followed by stereotyped automatistic behaviors including stun, forelimb clonus, twitching of the vibrissae, and Straub-tail. Animals not displaying these behaviors were considered protected. […] In addition to recording the efficacy and toxicity data for these compounds alone or in combination, both plasma and brain samples were collected from each of the groups for pharmacokinetic/pharmacokinetic analysis. No pharmacokinetic interaction was observed based on compound levels in the plasma and brain samples (data not shown). Isobolographic studies were conducted for the combined administration of Co. […] Studies were conducted according to previously described methods (Madsen et al. 2011). Initial ED50 values were determined for both Co. […] Co. […] Doses used were proportional to calculated ED50 values. […] Experimental treatment doses (see Table 4) were based on theoretical values and adjusted according to observed effects. Experimentally determined ED50 (+SEM) values for each fixed dose-ratio combination were compared to the theoretical values (t-test) for statistical purposes. […] Subsequently, the experimental combined doses were determined for the same paradigms in the 6 Hz seizure test (Table 4 below).
# [3] = Minimal motor impairment (rotarod)
# Method: Acute MMI was assessed by a combination of direct observations of the animal for overt symptoms of the animal's neurological or muscular function. In mice, the rotarod procedure was used to disclose minimal muscular or neurological impairment. When a mouse is placed on a rod that rotates at a speed of 6 rpm, the animal can maintain its equilibrium for long periods of time. The animal was considered toxic if it fell off this rotating rod three times during a 1 min period.
# In the determination of an ED50 or TD50 for each test compound, the first dose administered is usually the same dose as that used in a successful TPE determination.
# If the initial dose employed was effective or toxic in more than 50% of animals, the next dose would be one-half that of the initial dose; if the initial dose was effective or toxic in less than 50% of animals, the following dose would be twice that of the initial dose. Third and fourth doses were selected to produce an evenly spaced dose response line. There should be a minimum of 4 points either including or lying between 0 and 100%.
# [4] = test system: corneal kindled seizures; test: Mouse corneal kindling model; details: 100 mg/kg s.c.; Racine score 0-5
# Method: After the mice reached a stable kindled state, the test compound or vehicle was administered and, at the previously determined TPE, each animal was given the electrical stimulus indicated above. […] One dose of LEV and two doses of Co.
# [5] = 20 mg/kg s.c., 0.5 h, 32 mA group
# [6] = 40 mg/kg s.c., 0.5 h, 32 mA group
structure (smiles),measurement,setting,value
"Cc1cc(-c2nc(CN3CCNCC3)no2)cc2c1C(=O)N(Cc1ccc(OC(F)(F)F)cc1)C2 [CAS 1092453-15-0, 2,3-dihydro-7-methyl-5-[3-(1-piperazinylmethyl)-1,2,4-oxadiazol-5-yl]-2-[[4-(trifluoromethoxy)phenyl]methyl]-1H-isoindol-1-one, reference compound]",# protected/# tested,"[1]; 20 mg/kg s.c., 0.25 h",1/4
same,# protected/# tested,"[1]; 20 mg/kg s.c., 0.5 h",0/4
same,# protected/# tested,"[1]; 20 mg/kg s.c., 1 h",1/4
same,# protected/# tested,"[1]; 20 mg/kg s.c., 2 h",0/4
same,# protected/# tested,"[1]; 20 mg/kg s.c., 4 h",0/4
same,# protected/# tested,"[1]; 40 mg/kg s.c., 0.25 h",1/4
same,# protected/# tested,"[1]; 40 mg/kg s.c., 0.5 h",1/4
same,# protected/# tested,"[1]; 40 mg/kg s.c., 1 h",1/4
same,# protected/# tested,"[1]; 40 mg/kg s.c., 2 h",0/4
same,# protected/# tested,"[1]; 40 mg/kg s.c., 4 h",0/4
same,# protected/# tested,"[1]; 80 mg/kg s.c., 0.25 h",0/4
same,# protected/# tested,"[1]; 80 mg/kg s.c., 0.5 h",0/4
same,# protected/# tested,"[1]; 80 mg/kg s.c., 1 h",1/4
same,activity in the 6 Hz 32 mA test,[1]; result in words,Low activity; also recorded: did not show activity
same,activity in the 6 Hz 44 mA test,[2]; result in words,did not show activity
same,pharmacodynamic interaction with LEV in the 6 Hz model,[2]; result in words,did not display synergy
same,# rotarod motor impairment/# tested,"[3]; 20 mg/kg s.c., 0.25 h, 32 mA group",0/4
same,# rotarod motor impairment/# tested,[3]; [5],0/4
same,# rotarod motor impairment/# tested,"[3]; 20 mg/kg s.c., 1 h, 32 mA group",0/4
same,# rotarod motor impairment/# tested,"[3]; 20 mg/kg s.c., 2 h, 32 mA group",0/4
same,# rotarod motor impairment/# tested,"[3]; 20 mg/kg s.c., 4 h, 32 mA group",0/4
same,# rotarod motor impairment/# tested,"[3]; 40 mg/kg s.c., 0.25 h, 32 mA group",0/4
same,# rotarod motor impairment/# tested,[3]; [6],0/4
same,# rotarod motor impairment/# tested,"[3]; 40 mg/kg s.c., 1 h, 32 mA group",0/4
same,# rotarod motor impairment/# tested,"[3]; 40 mg/kg s.c., 2 h, 32 mA group",0/4
same,# rotarod motor impairment/# tested,"[3]; 40 mg/kg s.c., 4 h, 32 mA group",0/4
same,# rotarod motor impairment/# tested,"[3]; 80 mg/kg s.c., 0.25 h, 32 mA group",0/4
same,# rotarod motor impairment/# tested,"[3]; 80 mg/kg s.c., 0.5 h, 32 mA group",0/4
same,# rotarod motor impairment/# tested,"[3]; 80 mg/kg s.c., 1 h, 32 mA group",1/4
CCCCn1ccc(N2CCC(c3ccccc3)CC2)c(Cl)c1=O [Co. No. 2-a],# protected/# tested,"[1]; 2.5 mg/kg s.c., 0.5 h",0/8
same,# protected/# tested,"[1]; 5 mg/kg s.c., 0.5 h",0/8
same,# protected/# tested,"[1]; 10 mg/kg s.c., 0.5 h",4/8
same,# protected/# tested,"[1]; 20 mg/kg s.c., 0.5 h",6/8
same,# protected/# tested,"[1]; 40 mg/kg s.c., 0.5 h",8/8
same,ED50 (95% CI) 32 mA,"[1]; s.c., at TPE",ED50 (95% CI): 12.2 mg/kg (8.4 to 17.4)
same,activity when administered alone,[2]; 10 mg/kg s.c.,"^aCo. No. 2-a (s.c.) 10 mg/kg tested in combination with LEV (i.p.); Co. No. 2-a 10 mg/kg, not active when administered alone; also recorded: ^bCo. No. 2-a (s.c.) 10 mg/kg tested in combination with LEV (i.p.); Co. No. 2-a 10 mg/kg, not active when administered alone"
same,% protection 44 mA,[2]; 100 mg/kg s.c.,50% protection at
same,responders at 10 mg/kg,"[2]; Mus musculus, sc, 0.5 h, 10 mg/kg s.c., 0.5 h, read-out: # protected/# tested (converted)",0%
same,responders at 15 mg/kg,"[2]; Mus musculus, sc, 0.5 h, 15 mg/kg s.c., 0.5 h, read-out: # protected/# tested (converted)",25%
same,responders at 20 mg/kg,"[2]; Mus musculus, sc, 0.5 h, 20 mg/kg s.c., 0.5 h, read-out: # protected/# tested (converted)",37.5%
same,responders at 40 mg/kg,"[2]; Mus musculus, sc, 0.5 h, 40 mg/kg s.c., 0.5 h, read-out: # protected/# tested (converted)",100%
same,ED50,"[2]; Mus musculus, sc, at TPE, compound alone, read-out: ED50 (95% CI) 44 mA",21 mg/kg
same,# rotarod motor impairment/# tested,"[3]; 2.5 mg/kg s.c., 0.5 h, 32 mA group",1/8
same,# rotarod motor impairment/# tested,"[3]; 5 mg/kg s.c., 0.5 h, 32 mA group",0/8
same,# rotarod motor impairment/# tested,"[3]; 10 mg/kg s.c., 0.5 h, 32 mA group",0/8
same,# rotarod motor impairment/# tested,"[3]; 10 mg/kg s.c., 0.5 h, 44 mA group",1/8 and 0/8
same,# rotarod motor impairment/# tested,"[3]; 15 mg/kg s.c., 0.5 h, 44 mA group",1/8
same,# rotarod motor impairment/# tested,[3]; [5],3/8
same,# rotarod motor impairment/# tested,"[3]; 20 mg/kg s.c., 0.5 h, 44 mA group",0/8
same,# rotarod motor impairment/# tested,[3]; [6],2/8
same,# rotarod motor impairment/# tested,"[3]; 40 mg/kg s.c., 0.5 h, 44 mA group",4/8
same,TD50 at 0.5 h,"[3]; mouse, in vivo, sc, rotarod",> 40 mg/kg
same,Seizure score (dose) Corneal kindling,[4],4.4
